The supplement of paper PMC11451515

Legend:
Details in all cases: 48 h
[1] = tested on: NOMO1; assay: cell viability relative to DMSO control; higher = less cytotoxic
In short: (§1)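 NOMO1 or SEM cells were plated at 500 cells/well and P12-Ichikawa cells at 1000 cells/well in 1536-well plates (5 μl), after each leukemia line had been adapted for at least four passages in each medium. Pin dosing delivered library compounds in DMSO at 11 threefold concentrations, 47 μM to 0.79 nM. CellTiter-Glo One luminescence was read after 48 h at 37°C. Viability is reported as a per-plate percentage of DMSO wells, with cell-free wells as background.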

[2] = tested on: P12-Ichikawa; assay: as above
In short: as §1

[3] = tested on: SEM cells; assay: as above
In short: as §1

[4] = tested on: NOMO1; assay: AUC of viability dose-response curve (% viability x log10 dose units); higher = less sensitive
In short: (§2)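 Leukemia cells adapted to each medium (500 or 1000 cells/well, 1536-well plates) were exposed to library compounds in DMSO for 48 h at 37°C at 11 threefold doses, 47 μM to 0.79 nM. Luminescence by CellTiter-Glo One was normalised per plate to DMSO and cell-free wells, then fitted with a four-parameter log-logistic curve on log10 dose. Curves above full viability were scaled and quality-control failures removed before area under the curve was integrated by trapezoidal rule.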

[5] = tested on: P12-Ichikawa; assay: as above
In short: as §2

[6] = tested on: SEM cells; assay: as above
In short: as §2

C[C@H](NC(=O)/C(C#N)=C/c1cccc(Br)n1)c1ccccc1
cell viability [%]
Details | [1] | [2] | [3]
HPLM + 10% dialyzed FBS, 0.000781 µM | – | 107 | 89.8
HPLM + 10% dialyzed FBS, 0.00234 µM | – | 113 | 102
HPLM + 10% dialyzed FBS, 0.00702 µM | – | 112 | 98.7
HPLM + 10% dialyzed FBS, 0.0211 µM | – | 121 | 109
HPLM + 10% dialyzed FBS, 0.0632 µM | – | 119 | 118
HPLM + 10% dialyzed FBS, 0.19 µM | – | 122 | 112
HPLM + 10% dialyzed FBS, 0.569 µM | – | 120 | 103
HPLM + 10% dialyzed FBS, 1.71 µM | – | 45.1 | 40.7
HPLM + 10% dialyzed FBS, 5.12 µM | – | 7.82 | 8.01
HPLM + 10% dialyzed FBS, 15.4 µM | – | 7.53 | 6.81
HPLM + 10% dialyzed FBS, 46.1 µM | – | 7.45 | 6.6
RPMI 5 mM glucose + 10% FBS, 0.000781 µM | 104 | 112 | 91.1
RPMI 5 mM glucose + 10% FBS, 0.00234 µM | 104 | 119 | 98.2
RPMI 5 mM glucose + 10% FBS, 0.00702 µM | 123 | 112 | 102
RPMI 5 mM glucose + 10% FBS, 0.0211 µM | 112 | 111 | 107
RPMI 5 mM glucose + 10% FBS, 0.0632 µM | 119 | 118 | 91.9
RPMI 5 mM glucose + 10% FBS, 0.19 µM | 98.1 | 125 | 97.6
RPMI 5 mM glucose + 10% FBS, 0.569 µM | 103 | 131 | 93.2
RPMI 5 mM glucose + 10% FBS, 1.71 µM | 87.7 | 88.3 | 13
RPMI 5 mM glucose + 10% FBS, 5.12 µM | 19 | 9.63 | 7.6
RPMI 5 mM glucose + 10% FBS, 15.4 µM | 8.24 | 6.78 | 6.42
RPMI 5 mM glucose + 10% FBS, 46.1 µM | 7.32 | 6.3 | 6.63
RPMI 5 mM glucose + 10% dialyzed FBS, 0.000781 µM | 99.5 | 111 | 74.5
RPMI 5 mM glucose + 10% dialyzed FBS, 0.00234 µM | 115 | 109 | 116
RPMI 5 mM glucose + 10% dialyzed FBS, 0.00702 µM | 109 | 113 | 102
RPMI 5 mM glucose + 10% dialyzed FBS, 0.0211 µM | 114 | 111 | 122
RPMI 5 mM glucose + 10% dialyzed FBS, 0.0632 µM | 107 | 109 | 104
RPMI 5 mM glucose + 10% dialyzed FBS, 0.19 µM | 129 | 126 | 116
RPMI 5 mM glucose + 10% dialyzed FBS, 0.569 µM | 115 | 121 | 108
RPMI 5 mM glucose + 10% dialyzed FBS, 1.71 µM | 93.8 | 79.2 | 38.2
RPMI 5 mM glucose + 10% dialyzed FBS, 5.12 µM | 38.8 | 9.86 | 8.38
RPMI 5 mM glucose + 10% dialyzed FBS, 15.4 µM | 8.68 | 7.21 | 7.55
RPMI 5 mM glucose + 10% dialyzed FBS, 46.1 µM | 6.9 | 6.61 | 7.44

AUC of viability dose-response curve
Details | [4] | [5] | [6]
HPLM + 10% dialyzed FBS | 348 | 336 | 336
RPMI 5 mM glucose + 10% FBS | 361 | 353 | 316
RPMI 5 mM glucose + 10% dialyzed FBS | 371 | 351 | 336

CCCCCOC(=O)NC\1=N\C(=O)N(\C=C1F)[C@@H]2O[C@H](C)[C@@H](O)[C@H]2O
cell viability [%]
Details | [1] | [2] | [3]
HPLM + 10% dialyzed FBS, 0.000781 µM | 114 | 107 | 94
HPLM + 10% dialyzed FBS, 0.00234 µM | 111 | 91.7 | 111
HPLM + 10% dialyzed FBS, 0.00702 µM | 97 | 101 | 116
HPLM + 10% dialyzed FBS, 0.0211 µM | 99.7 | 103 | 125
HPLM + 10% dialyzed FBS, 0.0632 µM | 95.6 | 97.1 | 109
HPLM + 10% dialyzed FBS, 0.19 µM | 106 | 103 | 112
HPLM + 10% dialyzed FBS, 0.569 µM | 92.9 | 93.8 | 120
HPLM + 10% dialyzed FBS, 1.71 µM | 98.7 | 96.4 | 114
HPLM + 10% dialyzed FBS, 5.12 µM | 93.8 | 94.2 | 106
HPLM + 10% dialyzed FBS, 15.4 µM | 72.8 | 89.9 | 101
HPLM + 10% dialyzed FBS, 46.1 µM | 81.4 | 86.7 | 100
RPMI 5 mM glucose + 10% FBS, 0.000781 µM | 90.8 | 96.7 | 104
RPMI 5 mM glucose + 10% FBS, 0.00234 µM | 92.6 | 99.4 | 89.8
RPMI 5 mM glucose + 10% FBS, 0.00702 µM | 97.9 | 97.4 | 95.7
RPMI 5 mM glucose + 10% FBS, 0.0211 µM | 90.8 | 93.7 | 109
RPMI 5 mM glucose + 10% FBS, 0.0632 µM | 90.7 | 101 | 107
RPMI 5 mM glucose + 10% FBS, 0.19 µM | 102 | 91.5 | 88.7
RPMI 5 mM glucose + 10% FBS, 0.569 µM | 91.2 | 92.6 | 98.1
RPMI 5 mM glucose + 10% FBS, 1.71 µM | 87.9 | 93.3 | 98.1
RPMI 5 mM glucose + 10% FBS, 5.12 µM | 86.4 | 89.6 | 98.4
RPMI 5 mM glucose + 10% FBS, 15.4 µM | 85 | 77.3 | 94.4
RPMI 5 mM glucose + 10% FBS, 46.1 µM | 83.3 | 84 | 85.8
RPMI 5 mM glucose + 10% dialyzed FBS, 0.000781 µM | 99.2 | 101 | 96.6
RPMI 5 mM glucose + 10% dialyzed FBS, 0.00234 µM | 105 | 96.1 | 92.1
RPMI 5 mM glucose + 10% dialyzed FBS, 0.00702 µM | 106 | 96.2 | 105
RPMI 5 mM glucose + 10% dialyzed FBS, 0.0211 µM | 105 | 94.8 | 95.9
RPMI 5 mM glucose + 10% dialyzed FBS, 0.0632 µM | 103 | 100 | 106
RPMI 5 mM glucose + 10% dialyzed FBS, 0.19 µM | 99.4 | 93 | 109
RPMI 5 mM glucose + 10% dialyzed FBS, 0.569 µM | 101 | 91.2 | 95.6
RPMI 5 mM glucose + 10% dialyzed FBS, 1.71 µM | 109 | 87.2 | 108
RPMI 5 mM glucose + 10% dialyzed FBS, 5.12 µM | 92 | 90.1 | 96.8
RPMI 5 mM glucose + 10% dialyzed FBS, 15.4 µM | 73.8 | 83.8 | 93.7
RPMI 5 mM glucose + 10% dialyzed FBS, 46.1 µM | 92.5 | 83.8 | 86.2

AUC of viability dose-response curve
Details | [4] | [5] | [6]
HPLM + 10% dialyzed FBS | 413 | 460 | 468
RPMI 5 mM glucose + 10% FBS | 434 | 443 | 466
RPMI 5 mM glucose + 10% dialyzed FBS | 458 | 442 | 469

Oc1ccc2c3c1O[C@H]1c4[nH]c5c(c4C[C@@]4(O)[C@@H](C2)N(CC2CC2)CC[C@]314)C[C@@]1(O)[C@H]2Cc3ccc(O)c4c3[C@@]1(CCN2CC1CC1)[C@H]5O4
cell viability [%]
Details | [1] | [2] | [3]
HPLM + 10% dialyzed FBS, 0.000781 µM | 92.7 | 100 | 70.3
HPLM + 10% dialyzed FBS, 0.00234 µM | 104 | 111 | 88.3
HPLM + 10% dialyzed FBS, 0.00702 µM | 114 | 113 | 101
HPLM + 10% dialyzed FBS, 0.0211 µM | 116 | 117 | 92.6
HPLM + 10% dialyzed FBS, 0.0632 µM | 116 | 120 | 108
HPLM + 10% dialyzed FBS, 0.19 µM | 136 | 118 | 99.4
HPLM + 10% dialyzed FBS, 0.569 µM | 108 | 130 | 98.4
HPLM + 10% dialyzed FBS, 1.71 µM | 115 | 121 | 107
HPLM + 10% dialyzed FBS, 5.12 µM | 129 | 120 | 113
HPLM + 10% dialyzed FBS, 15.4 µM | 132 | 119 | 113
HPLM + 10% dialyzed FBS, 46.1 µM | 131 | 121 | 119
RPMI 5 mM glucose + 10% FBS, 0.000781 µM | 99.8 | 114 | 86.9
RPMI 5 mM glucose + 10% FBS, 0.00234 µM | 122 | 123 | 80.2
RPMI 5 mM glucose + 10% FBS, 0.00702 µM | 110 | 118 | 102
RPMI 5 mM glucose + 10% FBS, 0.0211 µM | 116 | 122 | 85.7
RPMI 5 mM glucose + 10% FBS, 0.0632 µM | 128 | 122 | 123
RPMI 5 mM glucose + 10% FBS, 0.19 µM | 118 | 124 | 119
RPMI 5 mM glucose + 10% FBS, 0.569 µM | 125 | 115 | 123
RPMI 5 mM glucose + 10% FBS, 1.71 µM | 120 | 126 | 128
RPMI 5 mM glucose + 10% FBS, 5.12 µM | 116 | 127 | 131
RPMI 5 mM glucose + 10% FBS, 15.4 µM | 123 | 137 | 119
RPMI 5 mM glucose + 10% FBS, 46.1 µM | 134 | 132 | 123
RPMI 5 mM glucose + 10% dialyzed FBS, 0.000781 µM | 98 | 97.8 | 89.5
RPMI 5 mM glucose + 10% dialyzed FBS, 0.00234 µM | 127 | 110 | 92.6
RPMI 5 mM glucose + 10% dialyzed FBS, 0.00702 µM | 112 | 113 | 104
RPMI 5 mM glucose + 10% dialyzed FBS, 0.0211 µM | 122 | 112 | 80.3
RPMI 5 mM glucose + 10% dialyzed FBS, 0.0632 µM | 123 | 120 | 107
RPMI 5 mM glucose + 10% dialyzed FBS, 0.19 µM | 126 | 123 | 106
RPMI 5 mM glucose + 10% dialyzed FBS, 0.569 µM | 122 | 117 | 111
RPMI 5 mM glucose + 10% dialyzed FBS, 1.71 µM | 110 | 122 | 107
RPMI 5 mM glucose + 10% dialyzed FBS, 5.12 µM | 108 | 119 | 98.4
RPMI 5 mM glucose + 10% dialyzed FBS, 15.4 µM | 124 | 129 | 99.6
RPMI 5 mM glucose + 10% dialyzed FBS, 46.1 µM | 119 | 134 | 113

AUC of viability dose-response curve
Details | [4] | [5] | [6]
HPLM + 10% dialyzed FBS | 448 | 463 | 422
RPMI 5 mM glucose + 10% FBS | 443 | 440 | 429
RPMI 5 mM glucose + 10% dialyzed FBS | 472 | 428 | 454
